SMILES strings stand for the structures.

For the test, the target named is T1, human full-length MKNK1 (Homo sapiens, UniProt Q9BUB5, T385D).
T1 construct: GST (N); purchased Carna Biosciences 02-145; host or cells: insect cells (baculovirus expression system)
T1 sequence (Q9BUB5 1-424 isoform Q9BUB5-2 T344D): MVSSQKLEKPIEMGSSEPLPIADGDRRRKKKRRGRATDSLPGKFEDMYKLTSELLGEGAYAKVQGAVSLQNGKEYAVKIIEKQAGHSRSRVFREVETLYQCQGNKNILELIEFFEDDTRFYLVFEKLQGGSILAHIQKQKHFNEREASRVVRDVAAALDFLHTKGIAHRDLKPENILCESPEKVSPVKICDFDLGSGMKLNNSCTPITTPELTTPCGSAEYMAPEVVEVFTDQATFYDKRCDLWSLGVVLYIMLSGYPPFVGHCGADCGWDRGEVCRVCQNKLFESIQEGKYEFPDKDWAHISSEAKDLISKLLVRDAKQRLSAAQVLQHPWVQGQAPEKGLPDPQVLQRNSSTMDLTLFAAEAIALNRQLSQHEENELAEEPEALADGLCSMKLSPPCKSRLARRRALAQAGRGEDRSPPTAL
Briefly: MKNK1 kinase high ATP assay (TR-FRET). The test is classed as biochemical. Particulars: high ATP (2 mM final), 15 min preincubation with enzyme, GST-MKNK1 (T344D). Here is the method:
MKNK1 Kinase High ATP Assay
MKNK1-inhibitory activity at high ATP of compounds of the present invention after their preincubation with MKNK1 was quantified employing the TR-FRET-based MKNK1 high ATP assay as described in the following paragraphs.
A recombinant fusion protein of Glutathione-S-Transferase (GST, N-terminally) and human full-length MKNK1 (amino acids 1-424 and T344D of accession number BAA 19885.1), expressed in insect cells using baculovirus expression system and purified via glutathione sepharose affinity chromatography, was purchased from Carna Biosciences (product no 02-145) and used as enzyme. As substrate for the kinase reaction the biotinylated peptide biotin-Ahx-IKKRKLTRRKSLKG (C-terminus in amide form) was used, which can be purchased e.g. from the company Biosyntan (Berlin-Buch, Germany).
For the assay 50 nL of a 100 fold concentrated solution of the test compound in DMSO was pipetted into a black low volume 384 well microtiter plate (Greiner Bio-One, Frickenhausen, Germany), 2 μL of a solution of MKNK1 in aqueous assay buffer [50 mM HEPES pH 7.5, 5 mM MgCL2, 1.0 mM dithiothreitol, 0.005% (v/v) Nonidet-P40 (Sigma)] was added and the mixture was incubated for 15 min at 22° C. to allow pre-binding of the test compounds to the enzyme before the start of the kinase reaction. Then the kinase reaction was started by the addition of 3 μL of a solution of adenosine-tri-phosphate (ATP, 3.3 mM=>final conc. in the 5 μL assay volume is 2 mM) and substrate (0.1 μM=>final conc. in the 5 μL assay volume is 0.06 μM) in assay buffer and the resulting mixture was incubated for a reaction time of 30 min at 22° C. The concentration of MKNK1 was adjusted depending of the activity of the enzyme lot and was chosen appropriate to have the assay in the linear range, typical concentrations were in the range of 0.003 μg/mL. The reaction was stopped by the addition of 5 μL of a solution of TR-FRET detection reagents (5 nM streptavidine-XL665 [Cisbio Bioassays, Codolet, France] and 1 nM anti-ribosomal protein S6 (pSer236)-antibody from Invitrogen [#44921G] and 1 nM LANCE EU-W1024 Labeled ProteinG [Perkin-Elmer, product no. AD0071]) in an aqueous EDTA-solution (100 mM EDTA, 0.1% (w/v) bovine serum albumin in 50 mM HEPES pH 7.5).
The resulting mixture was incubated for 1 h at 22° C. to allow the formation of complex between the phosphorylated biotinylated peptide and the detection reagents. Subsequently the amount of phosphorylated substrate was evaluated by measurement of the resonance energy transfer from the Eu-chelate to the streptavidine-XL. Therefore, the fluorescence emissions at 620 nm and 665 nm after excitation at 350 nm were measured in a TR-FRET reader, e.g. a Rubystar (BMG Labtechnologies, Offenburg, Germany) or a Viewlux (Perkin-Elmer). The ratio of the emissions at 665 nm and at […] was taken as the measure for the amount of phosphorylated substrate. The data were normalised (enzyme reaction without inhibitor=0% inhibition, all other assay components but no enzyme=100% inhibition).
(In general: In TR-FRET formats the signal depends on donor and acceptor labels being close together.)
As usually defined, the IC50 is the point on the concentration scale where inhibition reaches its midpoint. Low readings indicate higher potency, high ones lower potency. In turn, `O=C(c1cc2c(Nc3ccc4[nH]c(=O)sc4c3)ncnc2[nH]1)N1CCOCC1` [Example 32, 6-{[6-(Morpholin-4-ylcarbonyl)-7H-pyrrolo[2,3-d]pyrimidin-4-yl]amino}-1,3-benzothiazol-2(3H)-one] yielded an IC50 of 20 nM.
On to `O=c1[nH]c2ccc(Nc3ncnc4[nH]ccc34)cc2s1` [Example 6, 6-(7H-Pyrrolo[2,3-d]pyrimidin-4-ylamino)-1,3-benzothiazol-2(3H)-one], for which the IC50 was found to be 19 nM.
Consider `C[C@H]1COCCN1C(=O)c1cc2c(Nc3ccc4[nH]c(=O)sc4c3)ncnc2[nH]1` [Example 35], for which the IC50 is 47 nM.
The result for `CCc1[nH]c2ncnc(Nc3ccc4[nH]c(=O)sc4c3)c2c1C` [Example 1, 6-[(6-Ethyl-5-methyl-7H-pyrrolo[2,3-d]pyrimidin-4-yl)amino]-1,3-benzothiazol-2(3H)-one] reads 27 nM.
As to `COc1cc2[nH]c(=O)sc2cc1Nc1ncnc2[nH]c(Br)cc12` [Example 18, 6-[(6-Bromo-7H-pyrrolo[2,3-d]pyrimidin-4-yl)amino]-5-methoxy-1,3-benzothiazol-2(3H)-one], 18 nM corresponded to half-maximal inhibition (IC50).
The result for `N#Cc1c[nH]c2ncnc(Nc3ccc4[nH]c(=O)sc4c3)c12` [Example 12, 4-[(2-Oxo-2,3-dihydro-1,3-benzothiazol-6-yl)amino]-7H-pyrrolo[2,3-d]pyrimidine-5-carbonitrile] reads 13 nM.
The result for `COc1cc2[nH]c(=O)sc2cc1Nc1ncnc2[nH]cc(F)c12` [Example 28, 6-[(5-Fluoro-7H-pyrrolo[2,3-d]pyrimidin-4-yl)amino]-5-methoxy-1,3-benzothiazol-2(3H)-one] reads 1 nM; that for `O=c1[nH]c2ccc(Nc3ncnc4[nH]cnc34)cc2s1` [Example 9, 6-(9H-Purin-6-ylamino)-1,3-benzothiazol-2(3H)-one], 11 nM; that for `CN1CCN(C(=O)c2c[nH]c3ncnc(Nc4ccc5[nH]c(=O)sc5c4)c23)CC1` [Example 4, 6-({5-[(4-Methylpiperazin-1-yl)carbonyl]-7H-pyrrolo[2,3-d]pyrimidin-4-yl}amino)-1,3-benzothiazol-2(3H)-one], 19 nM.
Compound `O=c1[nH]c2ccc(Nc3ncnc4[nH]c(S(=O)(=O)c5ccc(Cl)cc5)cc34)cc2s1` [Example 23, 6-({6-[(4-Chlorophenyl)sulfonyl]-7H-pyrrolo[2,3-d]pyrimidin-4-yl}amino)-1,3-benzothiazol-2(3H)-one] showed an IC50 of 12 nM.
Compound `Cc1c[nH]c2ncnc(Nc3ccc4[nH]c(=O)sc4c3)c12` [Example 15, 6-[(5-Methyl-7H-pyrrolo[2,3-d]pyrimidin-4-yl)amino]-1,3-benzothiazol-2(3H)-one] had an IC50 of 9 nM. The IC50 values of the last two compounds are within 1.5-fold of each other.
The result for `O=c1[nH]c2ccc(Nc3ncnc4[nH]cc(Br)c34)cc2s1` [Example 27, 6-[(5-Bromo-7H-pyrrolo[2,3-d]pyrimidin-4-yl)amino]-1,3-benzothiazol-2(3H)-one] reads 6 nM; that for `C[C@@H]1COCCN1C(=O)c1cc2c(Nc3ccc4[nH]c(=O)sc4c3)ncnc2[nH]1` [Example 34], 39 nM; that for `O=c1[nH]c2ccc(Nc3ncnc4[nH]c(CCCO)cc34)cc2s1` [Example 17, 6-{[6-(3-Hydroxypropyl)-7H-pyrrolo[2,3-d]pyrimidin-4-yl]amino}-1,3-benzothiazol-2(3H)-one], 9 nM.
The result for `COc1cc2[nH]c(=O)sc2cc1Nc1ncnc2[nH]c(C(=O)O)cc12` [Example 26, 4-[(5-Methoxy-2-oxo-2,3-dihydro-1,3-benzothiazol-6-yl)amino]-7H-pyrrolo[2,3-d]pyrimidine-6-carboxylic acid] reads 21 nM; that for `CCCc1[nH]c2ncnc(Nc3cc4sc(=O)[nH]c4cc3OC)c2c1CC` [Example 29, 6-[(5-Ethyl-6-propyl-7H-pyrrolo[2,3-d]pyrimidin-4-yl)amino]-5-methoxy-1,3-benzothiazol-2(3H)-one], 5 nM; that for `COc1cc2[nH]c(=O)sc2cc1Nc1ncnc2[nH]ccc12` [Example 19, 5-Methoxy-6-(7H-pyrrolo[2,3-d]pyrimidin-4-ylamino)-1,3-benzothiazol-2(3H)-one], 11 nM.
On to `O=C(O)c1cc2c(Nc3ccc4[nH]c(=O)sc4c3)ncnc2[nH]1` [Example 30, 4-[(2-Oxo-2,3-dihydro-1,3-benzothiazol-6-yl)amino]-7H-pyrrolo[2,3-d]pyrimidine-6-carboxylic acid], for which inhibition was half-maximal at 36 nM (IC50).
Next, `O=C(c1cc2c(Nc3ccc4[nH]c(=O)sc4c3)ncnc2[nH]1)N1CCCCC1` [Example 36, 6-{[6-(Piperidin-1-ylcarbonyl)-7H-pyrrolo[2,3-d]pyrimidin-4-yl]amino}-1,3-benzothiazol-2(3H)-one]: 14 nM.
Next, `CCc1[nH]c2ncnc(Nc3cc4sc(=O)[nH]c4cc3OC)c2c1C` [Example 13, 6-[(6-Ethyl-5-methyl-7H-pyrrolo[2,3-d]pyrimidin-4-yl)amino]-5-methoxy-1,3-benzothiazol-2(3H)-one]: 6 nM; `CN(C)C(=O)c1c[nH]c2ncnc(Nc3ccc4[nH]c(=O)sc4c3)c12` [Example 20, N,N-dimethyl-4-[(2-oxo-2,3-dihydro-1,3-benzothiazol-6-yl)amino]-7H-pyrrolo[2,3-d]pyrimidine-5-carboxamide]: 15 nM.

Source of the values: US9382255B2, “Substituted pyrrolopyrimidinylamino-benzothiazolones as MKNK kinase inhibitors” (BAYER PHARMA AKTIENGESELLSCHAFT, priority 2012, dated 2016).
